Results: patent US20100284925A1, “Small Molecule Intervention for Obesity” (priority 2006, published 2010)
Entries after “also recorded” stand apart in the source; their conditions may differ.

Tests used:
PLTP promoter = assay: PLTP-promoter luciferase reporter in HepG2 and transgenic HepG2/PLTPpLuc cells; format: cell-based, human; conditions: for transactivation of PLTP promoter: luciferase reporter, HepG2 or HepG2/PLTPpLuc cells; for effect on transactivation of PLTP promoter by prieurianin: co-treatment with prieurianin, 200 nM staurosporine or 200 nM TSA
From the text: FIG. 2A. A 1.5 Kb PLTP promoter fused to a luciferase reporter was transactivated by topotecan dose-dependently.
FIG. 2B. Activation of PLTP promoter by topotecan in HepG2 transgenic cells containing the PLTP-promoter luciferase reporter gene fused to the neomycin selectable marker cassette and stably transfected into HepG2 cells to generate the transgenic line (Top panel). Dose-dependent induction of PLTP promoter by topotecan (Bottom panel). Results are the means S.E. of three experiments after normalization with Renilla luciferase.
FIG. 3A. Dose-dependent transactivation of the PLTP promoter by prieurianin in the HepG2 transgenic cells. Results are the means S.E. of three experiments after normalization with Renilla luciferase.
FIG. 3B. […] 1, Control; 2. […] Results are the means±S.E. of triplicate experiments.
FIG. 11. Transactivation of PLTP promoter by cytotoxic and non-cytotoxic drugs. Survey of transactivation of the PLTP promoter by various cytotoxic and non-cytotoxic drugs in the HepG2 transgenic cells was conducted. Results are the means S.E. of three experiments.
FIG. 12. Effects of trichostatin A (TSA) on transactivation of PLTP promoter by prieurianin. Dose response activation of PLTP promoter by prieurianin either in the presence or the absence of 200 nM TSA. Results are the means S.E. of three experiments.
To determine whether non-cytotoxic small molecules could induce PLTP expression, the inventor herein subcloned the PLTP-promoter luciferase reporter into a vector containing a neomycin (G418)-resistance selectable marker and generated a transgenic HepG2 cell line, which harbors the PLTP-promoter luciferase reporter, by stable gene transfection and selection with G418.
The transgenic cells were then screened with a library of small molecules derived from natural products.

NIH-3T3/L1 preadipocytes = assay: Differentiation of NIH-3T3/L1 preadipocytes into adipocytes (oil red O or Nile Red staining); format: cell-based
Experimental: FIG. 7. […] NIH-3T3/L1 cells were induced into differentiation and simultaneously treated with 2 μM of prieurianin. Differentiated cells were stained with oil red O—FIG. 7A, undifferentiated control.
Histogram represents A510 nm absorbance of oil red O stain isopropanol extracts from cells. Results are means±S.E. of triplicate experiments.
(§1) FIG. 19. Effects of bufalin on preadipocyte differentiation, and dedifferentiation/delipidation in adipo-cytes. NIH-3T3/L1 cells were induced into differentiation and simultaneously treated with either 1 μM of bufalin or 2 μM of prieurianin. Differentiated cells were stained with Nile Red. Alternatively, preadipocytes were induced into differentiation and five days following differentiation, cells were treated with either 1 μM of bufalin or 2 μM of prieurianin for an additional five days and followed by staining with Nile Red. Stained cells were evaluated by fluorescence microscopy.
To determine the effects of prieurianin on the differentiation of preadipocytes to adipocytes, the NIH-3T3/L1 preadipocytes were treated with or without the drug at the same time when induction of differentiation was initiated.

[1] = test system: differentiated NIH-3T3/L1 adipocytes; assay: Loss of lipid-positive differentiated adipocytes (oil red O, A510; Nile Red); format: cell-based; conditions: 1 μM bufalin, Nile Red
Experimental: FIG. 8. Prieurianin induced loss of differentiated adipocytes. NIH-3T3/L1 preadipocytes were induced into differentiation. Five days following differentiation, cells were treated with various concentrations (0.5, 1, and 2 μM) of prieurianin for an additional five days and followed by staining with oil red O. Micrographs were obtained from representatives of triplicate experiments. Isopropanol extracts of positively stained cells were quantified spectrophotometrically at 510 nm as shown in histogram on the right. Results are means±S.E. of triplicate experiments.
as §1
To assess whether prieurianin has any effect on the differentiated adipocytes, the preadipocytes were allowed to differentiate into adipocytes and then were further cultured for about five days before treating the adipocytes with prieurianin for an additional five to six days, followed by oil red O staining for the presence of lipid accumulating adipocytes.

NFκB = assay: NFκB-response element luciferase reporter in L1 preadipocytes; format: cell-based; conditions: prieurianin 2 μM
C/EBPα = C/EBPα response element luciferase reporter in L1 preadipocytes; format: cell-based; conditions: prieurianin 2 μM
Experimental: (§2) FIG. 18. Effects of prieurianin on C/EBPα and β and PPARγ mediated transcription in adipogenesis. Response elements corresponding to C/EBPα and β and PPARγ are cloned into the pGL3 basic luciferase reporter plasmid. L1 preadipocytes were contransfected with the reporter plasmid either in the presence or the absence of the corresponding transcription factors cloned into expression vector, followed by treatment with 2 μM of prieurianin. Cells were harvested for luciferase assay 15-24 hrs later. Results are means±S.E. of triplicate experiments.

C/EBPβ = C/EBPβ response element luciferase reporter in L1 preadipocytes; format: cell-based; conditions: prieurianin 2 μM
Experimental: as §2

PPARγ = PPARγ response element luciferase reporter in L1 preadipocytes; format: cell-based; conditions: prieurianin 2 μM
Experimental: as §2

[2] = test system: phospholipid transfer protein (PLTP) gene expression; assay: PLTP gene expression in HepG2 cells by DNA microarray and Northern blot; format: cell-based, human
Experimental: The patent or application file contains at least one drawing executed in color. Copies of this patent with color drawings will be provided by the United States Patent and Trademark Office upon request and payment of necessary fee. FIG. 1. Pharmacological response of HepG2 cells to topotecan by DNA Microarray. HepG2 cells were treated with 500 nM for various times (A) or with various concentrations of topotecan (B) for 24 hrs. Dendrogram of the expression changes of the phospholipid transfer protein (PLTP) is shown. (C) Induction of PLTP expression by topotecan was confirmed independently by Northern blot analysis.
The mechanisms of resistance to topoisomerase (Top) 1 inhibitors by expression genomics were studied by conducting time-course and dose-response experiments by DNA microarray to investigate the pharmacological response of the human hepatocellular blastoma HepG2 cells to topotecan, which were either treated with 500 nM of topotecan (a cytotoxic anticancer agent) for various times (0, 1, 3, 5, 10, 15, and 24 hrs), or with various doses of topotecan (0, 10, 50, 100, 300, 500, and 1000 nM) for 24 hrs.
Activation of PLTP expression by topotecan was temporally regulated and dose dependent, with a late onset, peaking at 24 hrs with an approximately 20-fold induction.

PLTP [3] = assay: Serum PLTP protein by Western blot in normal C57BL/6J mice; format: in vivo; conditions: normal C57BL/6J mice, 0, 2, 5 and 10 mg/kg
Experimental: (§3) FIG. 10. Release of adiponectin and PLTP by preadipocytes and adipocytes, and in serum of normal mice. Preadipocytes (B and D) were treated with 2 μM of prieurianin and media collected after 36 hrs for Western blot analysis of either adiponectin (A and B) or PLTP (C and D). Alternatively, five days following differentiation, conditioned media of adipocyets (A and C) were collected for Western analysis. E. Serum of normal C57BL/6J mice given prieurianin or topotecan (0, 2, 5, and 10 mg/kg) was analyzed by Western blot for PLTP.

adiponectin = assay: Adiponectin release into conditioned media (Western blot); format: cell-based; conditions: NIH-3T3/L1 preadipocytes, approximately 36 hrs after treatment
Experimental: as §3
Adipose tissue contains various types of cells including preadipocytes and adipocytes. Also, preadipocytes secrete factors involved in their own differentiation. Once differentiated, the mature adipocytes acquire the ability to communicate distally with other organs including brain, liver, and skeletal muscle and locally with other cells such as preadipocytes, endothelial cells and monocytes/macrophages by secreting leptin and adiponectin. In addition, anti-adipogenic cytokines prevent the release of adiponectin by preadipocytes. Thus, the production of adiponectin and PLTP by preadipocytes and adipocytes was assessed.

PLTP [4] = assay: PLTP release into conditioned media (Western blot); format: cell-based
Experimental: as §3
The expression and secretion of PLTP by preadipocytes and adipocytes was also assessed. Thus, preadipocytes produced and released both the low and the high molecular weight forms of PLTP, while adipocytes secreted only the low molecular weight form (see FIGS. 10C and 10D) into the conditioned media.

With `CCCCCCCCCCCCCC(=O)O[C@@H]1[C@@H](C)[C@@]2(O)[C@@H](C=C(CO)C[C@]3(O)C(=O)C(C)=C[C@@H]23)[C@@H]2C(C)(C)[C@]12OC(C)=O` [TPA, 12-O-tetradecanoylphorbol-13-acetate] the “transactivation of PLTP promoter” value (PLTP promoter) was “induced PLTP promoter”.
For `C[C@]12CC[C@H](O)C[C@H]1CC[C@@H]1[C@@H]2CC[C@]2(C)[C@@H](c3ccc(=O)oc3)CC[C@]12O` [bufalin, reference compound], the “transactivation of PLTP promoter” value (PLTP promoter) was “stimulates the PLTP promoter like prieurianin”, the differentiation of preadipocytes (NIH-3T3/L1 preadipocytes; 1 μM bufalin, Nile Red) was “did not, however, inhibit the differentiation of preadipocytes” and the “de-differentiation or delipidation in adipocytes” value [1] was “neither causes de-differentiation or delipidation in adipocytes”. For the same compound, the “NFκB-response element mediated transcription” value (NFκB) was “nor did it modulate the transcriptional activity”, the “transactivation potential of C/EBPα” value (C/EBPα) was “nor did it modulate the transcriptional activity” and the “transactivation potential of C/EBPβ” value (C/EBPβ) was “nor did it modulate the transcriptional activity”. For the same compound, the “transactivation potential of PPARγ” value (PPARγ) was “nor did it modulate the transcriptional activity”.
`CN[C@@H]1C[C@H]2O[C@@](C)([C@@H]1OC)n1c3ccccc3c3c4c(c5c6ccccc6n2c5c31)C(=O)NC4` [staurosporine] was tested, and the “effect on TPA activation of PLTP promoter” value (PLTP promoter; co-treatment with TPA) was “abolished”, the “effect on transactivation of PLTP promoter by prieurianin” value (PLTP promoter) was “strongly inhibited PLTP transactivation by prieurianin; also recorded: inhibited” and the “differentiation, staurosporine alone” value (NIH-3T3/L1 preadipocytes; data not shown) was “no observable effects on differentiation”.
`CC[C@@]1(O)C(=O)OCc2c1cc1n(c2=O)Cc2cc3c(CN(C)C)c(O)ccc3nc2-1` [topotecan, reference compound] was tested, and the “PLTP expression by Northern blot analysis” value ([2]; HepG2 cells) was “induced by topotecan dose-dependently”, the “induction of PLTP expression” value ([2]; HepG2 cells, DNA microarray, peaking at 24 hrs) was “approximately 20 fold” and the “onset of PLTP induction following treatment” value ([2]; time-course microarray analysis) was 12 to 15 h. The “transactivation of PLTP promoter” value (PLTP promoter) was “transactivated by topotecan dose dependently”, the “serum PLTP protein levels” value (PLTP [3]) was “a rise in the serum PLTP protein levels” and the “adiponectin release by preadipocytes” value (adiponectin) was “significantly inhibited the production of adiponectin”. For the same compound, the “release of PLTP by adipocytes” value (PLTP [4]; adipocytes) was “induced an increase in the release of only the low molecular weight form of PLTP” and the “release of PLTP by preadipocytes” value (PLTP [4]; preadipocytes) was “release of the low but not the high molecular form of PLTP was reduced”.
For `CC(/C=C/C(=O)NO)=C\[C@@H](C)C(=O)c1ccc(N(C)C)cc1` [trichostatin A], the “effect on transactivation of PLTP promoter by prieurianin” value (PLTP promoter) was “though modest, potentiated the transactivation of PLTP promoter activity by prieurianin”.
